These results are taken from patent US9873724B2, “Pro-angiogenic peptides and peptide conjugates” (Yissum Research Development Company of the Hebrew …, priority 2013, dated 2018).

Assay [1] deals with Mice/Balb/c, hind limb ischemia model. The experiment in a line: Mouse hind limb ischemia/angiogenesis model. Conditions: 20 mg/kg IP twice weekly. Format: in vivo. The source says:
The object of this study was to determine whether administration of the test items, peptides AB-017 (SEQ ID NO: 12) and 725-106 (positive control, SEQ ID NO: 2) can enhance angiogenesis, subsequently inducing clinical and motor function improvement in a hind limb ischemia model. The principle of the test is based on changes in perfusion rate, clinical signs and histological parameters (necrosis) following administration of the test compounds.
Each tested group included 4-7 mice per group. Intraperitoneal (i.p) injection is the preferred route of administration of the test items in this model and DMSO/PEG is used as vehicle to prepare the test item solution.
Tested peptides were dissolved in 100% DMSO. Thereafter Polyethylene glycol (PEG) 400 is added to the solution. Sterile water was used to dilute to a final concentration of 0.5% DMSO/10% PEG 400/H2O to result 2 mg/ml. The solution is prepared and divided into marked aliquots and stored at −70° C.
Species/Strain: Mice/Balb/c male˜8 weeks
Animals were housed under standard laboratory conditions, air conditioned and filtered (HEPA F6/6) with adequate fresh air supply (31 air changes/hour). Animals were kept in a climate controlled environment. Temperatures range is between 20-24° C. and RH is between 30-70% with 12 hours light and 12 hours dark cycle. Animals were housed in polyethylene cages (7/cage) measuring 35×30×15 cm, with stainless steel top grill facilitating pelleted food and drinking water in plastic bottle; bedding: steam sterilized clean paddy husk. Bedding material is changed along with the cage at least twice a week. Diet: Animals are fed ad libitum a commercial rodent diet (Teklad Certified Global 18% Protein Diet cat #: 106S8216). Animals have free access to drinking water obtained from the municipality supply. Surgical Procedure: Anesthesia: Isoflurane 1.5-3% in a mixture of O2/N2O, under spontaneous respiration. All four limbs of the animal were taped down in order to facilitate the animal for surgery. Both hind legs of the animals are shaved and disinfected. On the operated leg, the right leg in all animals, an incision was made from the inguinal area to the proximity of the knee. The femoral vein/artery/nerve were exposed. The artery is dissected free from the vein, nerve and surrounding fascia. Distal to its bifurcation with the profound femoral artery, using 6-0 silk suture the artery is ligated twice, and thereafter transected between these two points (see prox-A-group model appendix I). The surgical wound is closed with 6-0 silk and the mouse is returned to its cage. The left leg is untreated control in all animals. Exclusion criteria: Only mice, whose mean flux measurement post surgery is […] and ≦50% of the pre surgical measurement, are incorporated into the study. Mice whose mean flux measurement post surgery out of this range were excluded from the study.
[formula] Drug administration: All animals were dosed by IP administration at a dose volume of 10 ml/kg.
Tests and Evaluation: Body weight: Body weights were measured prior to surgery, prior to each dosing, and prior to necropsy. Blood flow measurement: Using a Laser Doppler apparatus (Perimed PeriScan PIM II System, Technical manual available at test facility) Blood flow was measured (operated leg & control leg) while the legs are in their natural resting position at the following time points: Before surgery (after shaving) & Post surgery (Day 0); Day 1; Day 8; Day 15; Day 22; and Day 29. Each time point for each mouse consists of three measurements. Blood flow was measured, additionally, in first 10 animals at Pre before shaving. […]

For a further assay, the system named is mouse aortic rings. The experiment in a line: Aortic ring assay ex-vivo (capillary sprouting from mouse aortic rings in collagen; repeated with VEGF). Format: cell-based. Also noted: Capillary length 10 μM (10 μM) / Capillary length 20 μM / Capillary length 10 μM: unit not given here. The note with it: for Capillary length 10 μM (10 μM) / Capillary length 10 μM: peptide 10 μM; for Capillary length 10 μM (10 μM) / Capillary length 20 μM / Capillary length 10 μM: rings fixed after two weeks; for Capillary length 20 μM: peptide 20 μM; for effect of peptide together with VEGF (in words): 10 μM peptide with VEGF; for Average capillary length / Fold vs vehicle: 10 μM peptide, alone or together with VEGF; for capillary / vessel formation (in words): aortic ring assay, FIGS. 1A-1C and 2A-2C; for Fold vs vehicle: capillary length. Here is the method:
Thoracic aortas were dissected from 7- to 8-week-old male SABRA mice. The aortas were immediately transferred to Petri dishes containing BIO-MPM-1. The adventitia and small vessels around the aorta were carefully removed under a dissecting microscope, and transverse cuts of 0.75 mm were made. The resulting aortic rings were extensively rinsed and incubated overnight in BIO-MPM-1 containing penicillin-streptomycin. Subsequently, the rings were embedded in 50 μl collagen mix (7 parts collagen, 1 part 10× Eagle minimal essential medium, MEM, and 2 parts 0.15 M sodium bicarbonate) in 96-well plates (Nunc, Rochester, N.Y.). Solidification of the collagen solution was achieved by raising the pH to neutral and the temperature to 37° C. 150 μl BIO-MPM-1 containing penicillin-streptomycin and the tested factors or peptides) was added to the embedded rings, and the plates were incubated at 37° C. in a humidified 10% CO2 atmosphere. Medium containing factors and/or peptides was refreshed at days 4 and 8. After two weeks, the rings were fixed with 4% formaldehyde for 24 hours, followed by staining with crystal violet (0.02%) dissolved in ethanol and extensive washing to remove excessive stain. The effect of factors and peptides was examined in 4 wells (4 rings of mouse aortic rings) per assay. Micrographs of representative rings were taken using a digital camera (Nikon, Tokyo, Japan). Morphometric analysis of sprouting was performed manually using Image-Pro 4.5 software (Media Cybernetics, Silver Spring, Md.) according to Nissanov et al. (Lab Invest. 1995; 73:734-739). Nonstained rings were subjected to paraffin sections and hematoxylin and eosin (H&E) staining.
FIGS. 1A-1C represents aortic ring capillary length and FIGS. 2A-2C aortic ring capillary width. In the table: K-Flu is a Lysine residue coupled with a fluorescein moiety, 4BrPhe is 4-bromo-Phenylalanine, Dod is Dodecanoyl, Dec designates Decanoyl, Oct is Octanoyl, and Hex is Hexanoyl.
The aortic ring assay was repeated in the presence of 10 μM concentration of peptides AB-033 (SEQ ID NO: 13) and AB-034 (SEQ ID NO: 14) together with the pro-angiogenetic protein VEGF.

Several values for one entry are separate records, joined by “and”; a condition that tells them apart may be missing. Equal values may be shown once. Square brackets hold non-standard residues; d marks the D form. Ends that are not written are not given here. * marks the point of attachment. fluorescein = fluorescein moiety coupled to a lysine residue (K-Flu); Tyr(3,5-I2) = N[C@@H](Cc1cc(I)c(O)c(I)c1)C(=O)O; Phe(4-Br) = N[C@@H](Cc1ccc(Br)cc1)C(=O)O; hArg = N=C(N)NCCCC[C@H](N)C(=O)O; Myristoyl = CCCCCCCCCCCCCC(=O)*; Lauroyl = CCCCCCCCCCCC(=O)*; Decanoyl = CCCCCCCCCC(=O)*; Nle = CCCC[C@H](N)C(=O)O; Octanoyl = CCCCCCCC(=O)*; Hexanoyl = CCCCCC(=O)*

“725-106: Previously disclosed EDG3 peptide, positive control; Table 2: Myr-Gly, Nle, Arg, Pro, Tyr, Asn, Ala, NH2 (Myristoyl-G[Nle]RPYNA-NH2; SMILES CCCCCCCCCCCCCC(=O)NCC(=O)N[C@@H](CCCC)C(=O)N[C@@H](CCCNC(=N)N)C(=O)N1CCC[C@H]1C(=O)N[C@@H](Cc1ccc(O)cc1)C(=O)N[C@@H](CC(N)=O)C(=O)N[C@@H](C)C(N)=O) [Peptide 725-106, reference compound]”: the “Functional evaluation at day 15 (individual mouse)” value in assay [1] (function score 0 (flexing the toes) to 3 (dragging of foot), one value per mouse) worked out at 3.0. For the same substance, in assay [1] (group average of ischemic score), the “Hind limb ischemia evaluation at day 15, Average” value is reported as 2.4. Further, the “Hind limb ischemia evaluation at day 15 (individual mouse)” value in assay [1] (ischemic score 0 (absence of necrosis) to 4 (total hind-limb loss), one value per mouse, listed as 106) is 2.0 (2×) and 3.0 and 2.5. Further, in the assay with mouse aortic rings, the “Capillary length 10 μM (10 μM)” value is 7,000 and the “Capillary length 20 μM” value is 4,600.
Turning to “AB-011: Table 2: Myr-Gly, Nle, Arg, Pro, Tyr, Asn, Ala, K-Flu (lysine coupled with fluorescein), NH2 (Myristoyl-G[Nle]RPYNAK(fluorescein)-NH2)”, in the assay with mouse aortic rings, the “Capillary length 10 μM (10 μM)” value is on record as 2500 and the “Capillary length 20 μM” value came to 5000.
Consider “AB-013: Table 2: Myr-Gly, Nle, Arg, Pro, Tyr, Asn, DAla, NH2 (Myristoyl-G[Nle]RPYN[dA]-NH2; SMILES CCCCCCCCCCCCCC(=O)NCC(=O)N[C@@H](CCCC)C(=O)N[C@@H](CCCNC(=N)N)C(=O)N1CCC[C@H]1C(=O)N[C@@H](Cc1ccc(O)cc1)C(=O)N[C@@H](CC(N)=O)C(=O)N[C@H](C)C(N)=O)”, for which, in the assay with mouse aortic rings, the “Capillary length 10 μM (10 μM)” value is 8700 and the “Capillary length 20 μM” value is 900.
In the same order, the values of “AB-015: Table 2: Acetyl-Gly-, Arg, Pro, Tyr, NH2 (Ac-GRPY-NH2)” are 1,000 and 1,700.
As to “AB-018: Table 2: Myr-Gly, Nle, Arg, Pro, Tyr, Asn, NH2 (Myristoyl-G[Nle]RPYN-NH2; SMILES CCCCCCCCCCCCCC(=O)NCC(=O)N[C@@H](CCCC)C(=O)N[C@@H](CCCNC(=N)N)C(=O)N1CCC[C@H]1C(=O)N[C@@H](Cc1ccc(O)cc1)C(=O)N[C@@H](CC(N)=O)C(N)=O)”, in the assay with mouse aortic rings, the “Capillary length 10 μM (10 μM)” value is listed as 12,600 and the “Capillary length 20 μM” value is 10,200.
Turning to “AB-020: Table 2: Dod-Gly (Dodecanoyl), Nle, Arg, Pro, Tyr (Lauroyl-G[Nle]RPY)”, in the assay on mouse aortic rings, the “Capillary length 10 μM” value is listed as 5,600, the “Capillary length 10 μM (10 μM)” value is 1,900 and the “Capillary length 20 μM” value is reported as 2,700.
In the case of “AB-021: Table 2: Dec-Gly (Decanoyl), Nle, Arg, Pro, Tyr (Decanoyl-G[Nle]RPY)”, in the assay on mouse aortic rings, the “Capillary length 10 μM” value is given as 3,940, the “Capillary length 10 μM (10 μM)” value was found to be 590 and the “Capillary length 20 μM” value was 3,200.
“AB-022: Table 2: Oct-Gly (Octanoyl), Nle, Arg, Pro, Tyr (Octanoyl-G[Nle]RPY)”: in the assay on mouse aortic rings, the “Capillary length 10 μM” value is listed as 2,170, the “Capillary length 10 μM (10 μM)” value is 380 and the “Capillary length 20 μM” value is recorded as 1,700.
As to “AB-023: Table 2: Hex-Gly (Hexanoyl), Nle, Arg, Pro, Tyr (Hexanoyl-G[Nle]RPY)”, in the assay with mouse aortic rings, the “Capillary length 10 μM” value was 1,700, the “Capillary length 10 μM (10 μM)” value turned out to be 430 and the “Capillary length 20 μM” value was 320.
With “AB-031: Table 2: Myr-Gly, Nle, Arg, Pro, 4BrPhe (Myristoyl-G[Nle]RP[Phe(4-Br)])”, the “Capillary length 10 μM” value in the assay with mouse aortic rings is recorded as 1,840.
Regarding “Myr-Gly-Arg-Pro-Tyr-NH2 (Myristoyl-GRPY-NH2; SMILES CCCCCCCCCCCCCC(=O)NCC(=O)N[C@@H](CCCNC(=N)N)C(=O)N1CCC[C@H]1C(=O)N[C@@H](Cc1ccc(O)cc1)C(N)=O) [AB-016]”, in the assay on mouse aortic rings, the “Capillary length 10 μM (10 μM)” value is 8,700 and the “Capillary length 20 μM” value is given as 14,500.
For the substance “Myr-Gly-Nle-Arg-Pro-35dITyr-NH2 (Myristoyl-G[Nle]RP[Tyr(3,5-I2)]-NH2; SMILES CCCCCCCCCCCCCC(=O)NCC(=O)N[C@@H](CCCC)C(=O)N[C@@H](CCCNC(=N)N)C(=O)N1CCC[C@H]1C(=O)N[C@@H](Cc1cc(I)c(O)c(I)c1)C(N)=O) [AB-033]”, in the assay with mouse aortic rings, the “effect of peptide together with VEGF (in words)” value is “synergistic effect”, the Average capillary length worked out at 4941, the “capillary / vessel formation (in words)” value is listed as “induce massive capillary formation” and the Fold vs vehicle was determined as 3.6. In the assay with mouse aortic rings, the “Capillary length 10 μM (10 μM)” value is on record as 3,570 and the “Capillary length 20 μM” value is recorded as 3,800.
With “Myr-Gly-Nle-hArg-Pro-Tyr-NH2 (Myristoyl-G[Nle][hArg]PY-NH2; SMILES CCCCCCCCCCCCCC(=O)NCC(=O)N[C@@H](CCCC)C(=O)N[C@@H](CCCCNC(=N)N)C(=O)N1CCC[C@H]1C(=O)N[C@@H](Cc1ccc(O)cc1)C(N)=O) [AB-034]”, in the assay with mouse aortic rings, the “effect of peptide together with VEGF (in words)” value is recorded as “synergistic effect”, the Average capillary length was 3062, the “capillary / vessel formation (in words)” value is listed as “induce massive capillary formation” and the Fold vs vehicle is recorded as 2.2. In the assay with mouse aortic rings, the “Capillary length 10 μM” value is reported as 9,700, the “Capillary length 10 μM (10 μM)” value is given as 9,570 and the “Capillary length 20 μM” value was 10,780.
Regarding VEGF, in the assay on mouse aortic rings, the Average capillary length is recorded as 3221 and the Fold vs vehicle was found to be 2.4.
